From PubChem BioAssay (NCI)
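Exposure lasted 48 hours, with cells grown in 96-well plates and compounds tested at five concentrations. The concentration for 50% growth inhibition is given as GI50. TGI marks complete inhibition of growth.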

Columns and labels:
Assay in all cases: inhibition of tumour cell growth, NCI panel, 48 h
[1] = tested on: UACC-62 melanoma
[2] = tested on: KM12 colon
[3] = tested on: UACC-257 melanoma
[4] = tested on: OVCAR-5 ovarian
[5] = tested on: U251 CNS
[6] = tested on: SK-OV-3 ovarian
[7] = tested on: SK-MEL-28 melanoma
[8] = tested on: SNB-19 CNS
[9] = tested on: HS 578T breast
[10] = tested on: IGROV1 ovarian
[11] = tested on: NCI-H23 lung
[12] = tested on: HCT-116 colon
[13] = tested on: ACHN renal
[14] = tested on: NCI/ADR-RES ovarian
[15] = tested on: NCI-H522 lung
[16] = tested on: A549 NSCLC
[17] = tested on: TK-10 renal
[18] = tested on: SK-MEL-2 melanoma
[19] = tested on: HT29 colon
[20] = tested on: K-562 leukemia
[21] = tested on: UO-31 renal
[22] = tested on: SNB-75 CNS
[23] = tested on: NCI-H460 lung
[24] = tested on: COLO 205 colon
[25] = tested on: OVCAR-3 ovarian
[26] = tested on: OVCAR-8 ovarian

COc1cc(/C=C\c2cc(OC)c(OC)c(OC)c2)cc(N/C=C\C(=O)c2c[nH]c3ccccc23)c1OC
GI50 [1]: 1.39 µM
TGI [1]: 3.33 µM
GI50 [2]: 3.69 µM
TGI [2]: 14.1 µM
GI50 [3]: 3.17 µM
TGI [3]: 10.8 µM
GI50 [4]: 2.45 µM
TGI [4]: 7.03 µM
GI50 [5]: 3.84 µM
TGI [5]: 15.7 µM
GI50 [6]: 12.3 µM
TGI [6]: 27 µM
GI50 [7]: 1.86 µM
TGI [7]: 3.79 µM
GI50 [8]: 3.92 µM
TGI [8]: 24.4 µM
GI50 [9]: 2.21 µM
TGI [9]: 12.9 µM
GI50 [10]: 1.23 µM
TGI [10]: 3.56 µM
GI50 [11]: 3.75 µM
TGI [11]: 16.2 µM
GI50 [12]: 1.76 µM
TGI [12]: 3.49 µM
GI50 [13]: 1.75 µM
TGI [13]: 3.39 µM
GI50 [14]: 3.48 µM
TGI [14]: 19.3 µM
GI50 [15]: 1.76 µM
TGI [15]: 3.7 µM
GI50 [16]: 14.5 µM
TGI [16]: 34.8 µM
GI50 [17]: 1.86 µM
TGI [17]: 3.54 µM
GI50 [18]: 2.21 µM
TGI [18]: 4.68 µM
GI50 [19]: 2.28 µM
TGI [19]: 5.14 µM
GI50 [20]: 1.54 µM
TGI [20]: > 100 µM
GI50 [21]: 0.326 µM
TGI [21]: 2.05 µM
GI50 [22]: 1.47 µM
TGI [22]: 2.92 µM
GI50 [23]: 5.6 µM
TGI [23]: 27.1 µM
GI50 [24]: 1.51 µM
TGI [24]: 3.2 µM
GI50 [25]: 1.72 µM
TGI [25]: 3.21 µM
GI50 [26]: 3.33 µM
TGI [26]: 13.3 µM
